Source: PMC6368403, “Identification of a bilirubin receptor that may mediate a component of cholestatic itch” (eLife, 2019)
“And” between values parts separate entries of the source, which are not always exact repeats. Equal values may be shown once.

Target: T1, MRGPRC11 (Mus musculus, UniProt Q8CIP3)
T1 construct: expressed in transfected cells
T1 sequence (Q8CIP3 1-322): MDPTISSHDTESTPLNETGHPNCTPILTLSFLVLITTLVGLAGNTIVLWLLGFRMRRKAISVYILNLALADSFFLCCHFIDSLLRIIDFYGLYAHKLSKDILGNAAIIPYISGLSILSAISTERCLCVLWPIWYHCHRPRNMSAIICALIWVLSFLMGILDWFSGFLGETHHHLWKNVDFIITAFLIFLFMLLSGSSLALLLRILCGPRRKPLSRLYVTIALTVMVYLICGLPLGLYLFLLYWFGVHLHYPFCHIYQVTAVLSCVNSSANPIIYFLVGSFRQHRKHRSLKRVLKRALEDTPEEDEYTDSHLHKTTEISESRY
Test: [35S]GTPγS binding to MRGPRC11 membrane complexes
Format: biochemical
Settings: 50 μM bilirubin
Experimental: MRGPR activation was determined by measuring binding of a radiolabelled and non-hydrolyzable form of GTP, [^35S]guanosine-5’-(γ-thio)triphosphate ([^35S]GTPγS) as previously described ([Vasavda et al., 2017]). Briefly, 10 µg of crude membrane fractions were diluted into 175 µL assay buffer (50 mM HEPES, 5 mM MgCl2, 100 mM NaCl, 1 mM EDTA, 0.1% […]) supplemented with 10 µM GDP and incubated at room temperature for 5 min. Membranes were then incubated an additional 1 min in a final volume of 199 μL assay buffer supplemented with 50 μM bilirubin. Samples were then brought to 200 μL with the addition of 10 nM [^35S]GTPγS. Samples were incubated for 2 hr at 4°C with gentle agitation. The experiment was terminated by rapid filtration onto GF/B filters and washed three times with wash buffer (50 mM Tris-HCl, 5 mM MgCl2, and 50 mM NaCl at pH 7.4). Filters were then immersed in scintillation cocktail and counted. Nonspecific binding was determined by competition with 10 μM unlabelled GTPγS. GTPγS binding assays were performed as two independent experiments, in triplicate.

GTP binding to MRGPRC11 membrane complexes: not to MRGPRC11
[35S]GTPγS binding (MRGPRC11 membrane complexes (Fig 2K)): 75 and 84 and 78
SMILES: C=CC1=C(C)/C(=C/c2[nH]c(Cc3[nH]c(/C=C4\NC(=O)C(C)=C4C=C)c(C)c3CCC(=O)O)c(CCC(=O)O)c2C)NC1=O [bilirubin, bilirubin IXα]
